Assay results from the NIST ThermoML archive (doi:10.1016/j.tca.2004.12.008).

Assay: mn = molality of the nth substance listed, in mol/kg
Conditions: 101.3 kPa, Liquid, Vibrating tube method

NCC(=O)NCC(=O)O [glycylglycine] + O
mass density [kg/m3]
Conditions | m1 = 0.0949 | m1 = 0.2052 | m1 = 0.2997 | m1 = 0.4062 | m1 = 0.5069
298.15 K | 1002.54 | 1008.5 | 1013.49 | 1018.99 | 1024.06
308.15 K | 999.21 | 1005.1 | 1010.03 | 1015.47 | 1020.5
